PMC6143625, “A high throughput screen for next-generation leads targeting malaria parasite transmission” (Nature Communications, 2018)

Experiments:
[1] = system: P. falciparum stage V male gametocytes (male gamete formation); assay: P. falciparum dual gamete formation assay (Pf DGFA), male readout (exflagellation), 48 h carry-over format; assay type: cell-based, Plasmodium falciparum NF54; details: primary screen, 2 uM, 48 h incubation, single replicate
Protocol: (§1) P. falciparum NF54 strain (originally isolated from an imported malaria case in the Netherlands in the 1980s; BEI Resources, cat. no. MRA-1000) asexual and sexual stages culture was performed as previously described. Gametocyte cultures were initiated at 1% asexual ring stage parasitaemia and 4% haematocrit in 40 ml final volume. To induce gametocyte production, complete culture medium (CM) (RPMI 1640 supplemented with 25 mM HEPES, 50 µg ml^−1 hypoxanthine, 2 g l^−1 NaHCO3 and 10% pooled human male type A+ serum) was replaced daily for 14 days without fresh erythrocyte addition. Human serum was obtained from Interstate Blood Bank, A^+ serotype; no aspirin 2 h before drawing and no antimalarials 2 weeks before drawing. On day 14 after culture induction, gametocyte production was assessed by thin smear and Giemsa staining, and exflagellation accurately counted in a haemocytometer. Gametocyte cultures with >0.2% exflagellation (compared to total erythrocyte cell number) were deemed acceptable for use in the Pf DGFA. Note, all human biological samples were sourced ethically and their research use was in accord with the terms of the informed consents under an IRB/EC approved protocol.
(§2) In screening mode, the assay was performed as described in Delves et al.[35] with a mean Z′ factor of 0.56 ± 0.14 (SD) (male) and 0.71 ± 0.17 (SD) (female). Pooled mature gametocyte cultures with the capacity to yield >0.2% exflagellation (of total cells) were diluted in CM to 14 million cells per ml and so that 700,000 cells were dispensed in 50 µl into each well of the warmed 384-well screening plates. Parasites were incubated in the plates with compounds for 48 h in a humidified chamber under 92%N2/5% CO2/3% O2 gas mix before gamete formation was triggered by addition of 10 µl per well ookinete medium (RPMI 1640 supplemented with 25 mM HEPES, 50 µg ml^−1 hypoxanthine, 2 g l^−1 NaHCO3, 100 µM xanthurenic acid) containing 0.5 µg ml^−1 anti-Pfs25 clone 4B7 (BEI Resources, cat. no. MRA-315) conjugated to the fluorophore Cy3 (GE Healthcare), and also by cooling the plate at 4 °C for 4 min and then a further 5 min at 28 °C. Exflagellation was recorded immediately by brightfield microscopy using a Nikon Ti-E widefield microscope at ×4 objective, ×1.5 zoom, recording a 10-frame video time-lapse over 2 s for each well. Afterwards, plates were incubated in the dark at 28 °C for a further 24 h to allow female gametes to maximally express Pfs25 on their surface. Female gamete formation was recorded by single-image fluorescence microscopy using the same microscope and magnification as above. Exflagellation and female gamete formation were quantified by specific algorithms designed with the open-source ICY Image Analysis software.
(§3) Assay performance statistics, such as signal to background ratio, Z′ and robust 3×SD activity cut-off were calculated using templates in ActivityBase XE (IDBS, Guilford, Surrey, UK). Hit population analysis and visualisation were conducted using Spotfire DecisionSite (Spotfire, Inc., Somerville, Massachusetts). The pIC50 (−log IC50) values were obtained using the ActivityBase XE nonlinear regression function in the full curve analysis bundle. In screening mode, the Pf DGFA achieved a mean Z′ factor of 0.56 ± 0.14 (SD) (male) and 0.71 ± 0.17 (SD) (female).

[2] = system: P. falciparum stage V female gametocytes (female gamete formation); assay: P. falciparum dual gamete formation assay (Pf DGFA), female readout (Pfs25 expression), 48 h carry-over format; assay type: cell-based, Plasmodium falciparum NF54; details: primary screen, 2 uM, 48 h incubation, single replicate
Protocol: as §1
as §2, with “Parasites were incubated in the plates with compounds for 48 h in a humidified chamber under” left out
as §3

SMILES	%Inhibition Male @2uM [1] [%]	%Inhibition Female @2uM [2] [%]
CN(C)[C@@H]1CCN(C(=O)Cc2cccs2)[C@H]1Cc1ccncc1 [DDD01083822]	35.35	<30
O=C(c1ccnnc1)N1C[C@H](OCc2ccccn2)[C@H]2COC[C@H]21 [DDD01084503]	<30	32.17
CN(C)CCN1CCN(C)c2nc(-c3ccccc3)ncc2C1=O [DDD01235874]	34.25	<30
CC(C)[C@H](NS(C)(=O)=O)C(=O)NCc1cc(-c2ccco2)n[nH]1 [DDD01235905]	31.18	<30
CC(C)[C@H](NS(C)(=O)=O)C(=O)NCc1cc(-c2ccccc2)n[nH]1 [DDD01235932]	32.71	<30
CC(C)(C)Nc1nc(-c2cccnc2)c(-c2ccnc(NCCO)n2)s1 [DDD01235967]	38.85	<30
CCOCC(=O)N1CCC(c2nccn2Cc2cscn2)CC1 [DDD01243474]	109.47	<30
O=C(O)CCc1cc2n(n1)CCCN(C(=O)c1ccc(F)cc1F)C2 [DDD01243729]	76.28	<30
NCC1CCCN(c2nc(-c3ccccc3)nc3c2CCNCC3)C1 (centres unmarked) [DDD01244614]	71.27	30.18
Cn1nnnc1SCCNC(=O)C1CCN(C(=O)C2CC2)CC1 [DDD01244691]	73.04	<30
CCC(C(=O)N(C)C)N1CCC(c2nccn2Cc2cscn2)CC1 (centres unmarked) [DDD01244731]	126.32	<30
CN(C)c1ccc(C(=O)N2CCCN(C3CCCCC3)CC2)cn1 [DDD01244855]	<30	30.12
COC(=O)c1ccc(C(=O)N2CCCC(Nc3ccc(F)cc3)C2)cc1 (centres unmarked) [DDD01244904]	109.47	<30
CN(Cc1cnn(C)c1)c1nccc(-c2cc(C(=O)O)ccn2)n1 [DDD01245058]	<30	33.22
Cc1nc[nH]c1CN1CCn2nc(CN3Cc4ccccc4C3)cc2C1 [DDD01245298]	30.45	<30
COc1cccc2c1OCC(C(=O)N1CCN(CCS(C)(=O)=O)CC1)C2 (centres unmarked) [DDD01245746]	56.62	<30
CCNC(=O)[C@@H]1C[C@H](NC(=O)c2cncnc2C)CN1Cc1ccsc1 [DDD01245940]	<30	96.27
Cc1cccc(=O)n1CCCNc1nc(N(C)C)nc2c1CCNC2 [DDD01245962]	35.31	<30
CN(C)Cc1nnc(C2CCN(c3ncccc3Cl)CC2)n1C1CC1 [DDD01246077]	30.72	<30
COCCN(C)CCN1CC2(CCN(C3CCOC3)CC2)OC1=O (centres unmarked) [DDD01246090]	126.32	<30
COc1cccc2c1OCC(C(=O)N1Cc3ccccc3C1)C2 (centres unmarked) [DDD01246187]	112.07	<30
O=C(c1ccccn1)N1C[C@H]2CC[C@@H](C1)N(C(=O)CCN1CCCC1)C2 [DDD01246765]	99.89	<30
